The subject of data set [1] is FoP-Heps. Briefly: Fatty acid treatment, intracellular lipid accumulation (BODIPY staining) in 3D FoP-Heps. The following applies: 0.25 mM conjugated with BSA, 7 days, 3D culture from day 20; 4TF eFoP- and iFoP-Heps; BSA control. It is filed as cell-based, human. How it is done:
(§1) Forward programmed cells were embedded in 3D from day 20 and cultured for 7 days in Hepatozyme complete medium supplemented with either BSA (control), or oleic acid (0.25 mM) or palmitic acid (0.25 mM) conjugated with BSA. Intracellular lipid accumulation was detected by incubating cells with 1 μl/ml Bodipy (Thermo scientific) for 30 minutes, followed by DAPI (Hoechst) diluted 1:10.000 in PBS for 30 minutes and imaged on a Zeiss LSM 700 confocal microscope.

Data set [2] relates to FoP-Heps. Kind of data set: Fatty acid treatment, cell viability (Presto Blue) in 3D FoP-Heps. The format is cell-based, human. Conditions: 0.25 mM conjugated with BSA, 7 days, 3D culture from day 20; 4TF FoP-Heps; normalised against BSA control. The procedure:
as §1
(§2) Cell viability was determined by incubating cells with 1:10 Presto Blue reagent (Invitrogen) in Hepatozyme complete medium at 37° C. for 4 hours. Fluorescence was measured using the EnVision plate reader with an excitation emission of 560 nm/590 nm.

The subject of data set [3] is FoP-Heps. Kind of data set: APAP toxicity, cell viability (Presto Blue) in 3D FoP-Heps. The format is cell-based, human. The following applies: 25 mM for 48 h (day 18 to day 20), 3D cultures; 4TF FoP-Heps; normalised against untreated. How it is done: The hepatotoxicity of acetaminophen (APAP) was tested by incubating forward programmed cells cultured in 3D from day 15 in Hepatozyme complete medium supplemented with 25 mM acetaminophen (R&D) for 48 h hours (day 18 to day 20) after which cell viability was determined.
as §2

In data set [4] the test system is FoP-Heps. Kind of data set: CYP3A4 activity (P450 Glo) in FoP-Heps treated with exogenous nuclear receptor ligands. The following applies: for effect on CYP3A4 activity: vs untreated control, FoP-Heps with 3TFs plus the ligand's nuclear receptor (AR for testosterone, RORc for desmosterol). The procedure: hPSCs were dissociated into single cells following incubation with StemPro Accutase (Thermo Fisher) for 5 minutes at 37° C. and seeded at a density of 40-50.000 cells/cm2 in E8 medium supplemented with 10 μM ROCK Inhibitor Y-27632 (Selleckchem). E8 medium was replenished the following day. Following 48 h, initial induction of the transgenes was achieved by incubation in E6 medium (E8 without growth factors) supplemented with […] doxycycline (dox) for 24 h. Cells were then maintained in Hepatozyme complete medium supplemented with […] dox for the remaining duration of the protocol. Medium was replenished every day for the next 4 days, and every other day here after. For specific experiments, cell lines were treated with 100 nM of desmosterol, testosterone or […] (E2) from day 2 of forward programming. All ligands were purchased from Sigma-Aldrich and reconstituted in ethanol. For 3D cultures, forward programmed cells were embedded in Matrigel Growth Factor Reduced Basement Membrane Matrix, Phenol Red-free (Corning) at day 15 or day 20 and cultured for 5 days or 10 days, respectively. Cells were dissociated with Hank's based cell dissociation buffer (Gibco) for 20 minutes at 37° C., resuspended in Matrigel and seeded in 40-50 μL domes in Hepatozyme complete medium supplemented with […] dox.
Measurement of CYP3A4 enzymatic activity was performed using the P450 Glo kit (Promega). Cells were incubate with 1:1000 luciferin-IPA in Hepatozyme complete for 1 h at 37° C. Supernatant was mixed with detection reagent in a 1:1 ratio and incubated at RT for 20 minutes in Greiner white 96 well microplates (Sigma Aldrich). Luminescence was measured in triplicate on a GloMax plate reader. Hepatozyme complete medium was used as background control. Relative light units were normalised for background, volume and average total number of cells obtained after differentiation.

Setting [5] is: 100 nM ligand from day 2, day 20 of forward programming.

As to `CCCCCCCC/C=C\CCCCCCCC(=O)O` [OA, oleic acid], the “accumulation of lipids (BODIPY staining)” value in the data set with FoP-Heps [1] is “strong accumulation of lipids”.

Consider `CCCCCCCCCCCCCCCC(=O)O` [PA, palmitic acid], for which the “cell viability (lipotoxicity)” value in the data set on FoP-Heps [2] is “reduction in cell viability”.

On to `CC(=O)Nc1ccc(O)cc1` [acetaminophen], for which the “reduction in cell viability” value in the data set with FoP-Heps [3] is on record as 50%.

As to `CC(C)=CCC[C@@H](C)[C@H]1CC[C@H]2[C@@H]3CC=C4C[C@@H](O)CC[C@]4(C)[C@H]3CC[C@]12C` [desmosterol], in the data set with FoP-Heps [4] (setting [5]), the “effect on CYP3A4 activity” value is listed as “no effect”.

`C[C@]12CC[C@H]3[C@@H](CCC4=CC(=O)CC[C@@]43C)[C@@H]1CC[C@@H]2O` [testosterone]: the “effect on CYP3A4 activity” value in the data set with FoP-Heps [4] (setting [5]) was “significantly decreased”.

In the case of β-estradiol [p3-estradiol], the “increase in CYP3A4 activity” value in the data set with FoP-Heps [4] (100 nM ligand from day 2, day 20 of forward programming, normalised to untreated control, FoP-Heps with 3TFs plus the ligand's nuclear receptor (ERα)) came to 3 fold. Also, the “increase in CYP3A4 activity in 3TFs FoP-Heps” value in the data set on FoP-Heps [4] (3TFs FoP-Heps without overexpressed nuclear receptor, 100 nM ligand) is “not observed”.
